Test results from ChEMBL document CHEMBL5463729, “Data for DCP probe BAY 1753011” (2023).

Legend:
[1] = target: Fibroblast growth factor receptor 3 (Homo sapiens) (UniProt P22607); test: Inhibition of FGFR3(h) at 10.0 µM in the Eurofins Kinase panel; settings: Compound concentration 10.0 uM
[2] = target: Transient receptor potential cation channel subfamily M member 7 (Homo sapiens) (UniProt Q96QT4); test: Inhibition of ChaK1(h) at 10.0 µM in the Eurofins Kinase panel; settings: Compound concentration 10.0 uM
[3] = target: T1, Muscarinic acetylcholine receptor M4 (Homo sapiens) (UniProt P08173); settings: Compound concentration 10.0 uM
T1 sequence (whole entry): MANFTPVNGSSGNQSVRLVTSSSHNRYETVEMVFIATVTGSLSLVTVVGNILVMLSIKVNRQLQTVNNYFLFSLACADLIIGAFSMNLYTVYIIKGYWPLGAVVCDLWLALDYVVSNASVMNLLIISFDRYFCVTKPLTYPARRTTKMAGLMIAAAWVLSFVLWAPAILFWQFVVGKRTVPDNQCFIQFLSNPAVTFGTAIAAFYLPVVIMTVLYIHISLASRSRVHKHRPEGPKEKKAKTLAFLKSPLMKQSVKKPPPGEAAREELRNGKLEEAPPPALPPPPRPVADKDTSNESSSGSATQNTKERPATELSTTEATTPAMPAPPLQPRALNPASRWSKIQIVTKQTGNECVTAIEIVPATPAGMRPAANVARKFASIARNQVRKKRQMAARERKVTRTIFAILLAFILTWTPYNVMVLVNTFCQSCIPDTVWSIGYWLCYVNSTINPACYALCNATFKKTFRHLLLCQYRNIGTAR

[4] = target: Progesterone receptor (Homo sapiens) (UniProt P06401); settings: Compound concentration 10.0 uM
[5] = target: Gamma-aminobutyric acid type B receptor subunit 1 (Homo sapiens) (UniProt Q9UBS5); settings: Rattus norvegicus; Compound concentration 10.0 uM
[6] = target: MAP kinase-interacting serine/threonine-protein kinase 1 (Homo sapiens) (UniProt Q9BUB5); test: Inhibition of Mnk1(h) at 10.0 µM in the Eurofins Kinase panel; settings: Compound concentration 10.0 uM
Sequence of MAP kinase-interacting serine/threonine-protein kinase 1 (Homo sapiens) (Q9BUB5 whole entry, looked up): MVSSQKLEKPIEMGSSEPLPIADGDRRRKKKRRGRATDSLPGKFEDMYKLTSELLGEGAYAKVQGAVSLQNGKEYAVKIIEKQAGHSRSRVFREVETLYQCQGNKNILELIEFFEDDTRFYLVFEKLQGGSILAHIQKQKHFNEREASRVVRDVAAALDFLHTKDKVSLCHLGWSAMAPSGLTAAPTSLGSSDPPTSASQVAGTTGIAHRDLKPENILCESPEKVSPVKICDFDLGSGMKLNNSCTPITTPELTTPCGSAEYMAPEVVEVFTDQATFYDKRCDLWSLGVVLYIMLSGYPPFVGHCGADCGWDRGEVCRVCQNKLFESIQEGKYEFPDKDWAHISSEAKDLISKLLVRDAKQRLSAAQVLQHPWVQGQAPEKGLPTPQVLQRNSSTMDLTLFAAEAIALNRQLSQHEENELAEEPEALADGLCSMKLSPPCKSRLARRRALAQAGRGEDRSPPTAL

[7] = target: T2, Alpha-1D adrenergic receptor (Homo sapiens) (UniProt P25100); test: Inhibition of Adrenergic alpha1D at 10 µM in the Eurofins-Panlabs radioligand binding assay (Eurofins_assay_203400); settings: Compound concentration 10.0 uM
T2 sequence (whole entry): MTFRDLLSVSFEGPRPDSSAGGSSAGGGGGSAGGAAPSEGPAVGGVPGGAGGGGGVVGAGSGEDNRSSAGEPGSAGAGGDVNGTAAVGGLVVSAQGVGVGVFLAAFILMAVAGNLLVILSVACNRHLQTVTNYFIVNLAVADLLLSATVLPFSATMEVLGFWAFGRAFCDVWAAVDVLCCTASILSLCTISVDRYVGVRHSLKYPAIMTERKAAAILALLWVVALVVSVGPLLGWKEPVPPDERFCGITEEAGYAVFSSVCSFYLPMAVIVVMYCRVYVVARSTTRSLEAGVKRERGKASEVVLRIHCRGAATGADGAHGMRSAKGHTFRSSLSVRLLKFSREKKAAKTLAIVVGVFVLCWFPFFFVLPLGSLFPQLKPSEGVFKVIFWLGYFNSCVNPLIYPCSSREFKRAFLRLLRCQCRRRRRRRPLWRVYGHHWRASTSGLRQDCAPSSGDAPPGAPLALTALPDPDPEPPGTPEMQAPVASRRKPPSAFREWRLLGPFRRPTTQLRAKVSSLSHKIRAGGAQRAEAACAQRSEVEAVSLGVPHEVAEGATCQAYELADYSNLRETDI

[8] = target: Vascular endothelial growth factor receptor 1 (Homo sapiens) (UniProt P17948); test: Inhibition of Flt1(h) at 10.0 µM in the Eurofins Kinase panel; settings: Compound concentration 10.0 uM
Sequence of Vascular endothelial growth factor receptor 1 (Homo sapiens) (P17948 whole entry): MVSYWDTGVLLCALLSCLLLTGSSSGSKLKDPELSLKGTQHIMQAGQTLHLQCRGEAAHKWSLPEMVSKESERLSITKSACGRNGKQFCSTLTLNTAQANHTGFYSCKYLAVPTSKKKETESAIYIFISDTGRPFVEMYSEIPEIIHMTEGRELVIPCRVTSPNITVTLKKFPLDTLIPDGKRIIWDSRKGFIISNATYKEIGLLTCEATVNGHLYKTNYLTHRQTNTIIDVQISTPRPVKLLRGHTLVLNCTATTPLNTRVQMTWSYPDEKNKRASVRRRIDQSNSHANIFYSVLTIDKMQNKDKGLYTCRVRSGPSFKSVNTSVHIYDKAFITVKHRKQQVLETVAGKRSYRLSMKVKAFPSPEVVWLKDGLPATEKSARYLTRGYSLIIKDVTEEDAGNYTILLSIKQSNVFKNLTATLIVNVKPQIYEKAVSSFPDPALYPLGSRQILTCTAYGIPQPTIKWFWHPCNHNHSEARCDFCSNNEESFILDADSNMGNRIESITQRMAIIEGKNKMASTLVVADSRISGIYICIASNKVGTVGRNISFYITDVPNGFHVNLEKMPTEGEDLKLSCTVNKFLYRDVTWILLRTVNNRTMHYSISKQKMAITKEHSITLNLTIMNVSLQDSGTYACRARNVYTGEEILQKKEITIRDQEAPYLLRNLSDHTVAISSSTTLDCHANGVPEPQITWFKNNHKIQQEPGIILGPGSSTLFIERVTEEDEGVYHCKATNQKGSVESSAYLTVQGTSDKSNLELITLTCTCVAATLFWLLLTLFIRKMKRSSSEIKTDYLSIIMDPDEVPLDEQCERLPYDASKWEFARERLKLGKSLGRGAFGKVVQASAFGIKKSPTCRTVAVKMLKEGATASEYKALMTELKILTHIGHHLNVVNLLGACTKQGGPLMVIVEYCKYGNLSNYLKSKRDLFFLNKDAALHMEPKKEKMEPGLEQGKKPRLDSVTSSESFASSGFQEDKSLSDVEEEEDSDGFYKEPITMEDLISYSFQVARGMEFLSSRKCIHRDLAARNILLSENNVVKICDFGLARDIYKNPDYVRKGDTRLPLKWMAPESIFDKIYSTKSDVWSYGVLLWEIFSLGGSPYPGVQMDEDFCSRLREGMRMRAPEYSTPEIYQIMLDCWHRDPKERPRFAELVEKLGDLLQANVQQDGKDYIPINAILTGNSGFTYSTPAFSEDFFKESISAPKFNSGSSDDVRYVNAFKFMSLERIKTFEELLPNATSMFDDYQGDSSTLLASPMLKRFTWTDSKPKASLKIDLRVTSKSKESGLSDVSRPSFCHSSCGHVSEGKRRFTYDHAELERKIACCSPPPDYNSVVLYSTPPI

[9] = target: Mitogen-activated protein kinase 3 (Homo sapiens) (UniProt P27361); test: Inhibition of Protein Serine/Threonine Kinase, MAPK3 (ERK1) at 10 µM in the Eurofins-Panlabs enzyme assay (Eurofins_assay_171000); settings: Compound concentration 10.0 uM
Sequence of Mitogen-activated protein kinase 3 (Homo sapiens) (P27361 whole entry): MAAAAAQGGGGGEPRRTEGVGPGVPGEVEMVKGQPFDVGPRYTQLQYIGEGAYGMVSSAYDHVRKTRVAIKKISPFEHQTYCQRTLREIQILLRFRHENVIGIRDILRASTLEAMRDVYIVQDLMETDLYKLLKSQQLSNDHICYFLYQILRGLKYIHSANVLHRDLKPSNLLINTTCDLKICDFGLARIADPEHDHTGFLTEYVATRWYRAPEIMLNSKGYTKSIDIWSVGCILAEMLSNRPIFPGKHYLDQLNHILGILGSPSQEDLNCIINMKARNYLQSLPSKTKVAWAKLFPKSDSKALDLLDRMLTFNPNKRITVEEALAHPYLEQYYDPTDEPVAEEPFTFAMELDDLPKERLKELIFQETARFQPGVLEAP

[10] = target: B1 bradykinin receptor (Homo sapiens) (UniProt P46663); test: Inhibition of Bradykinin B1 at 10 µM in the Eurofins-Panlabs radioligand binding assay (Eurofins_assay_212510); settings: Compound concentration 10.0 uM
Sequence of B1 bradykinin receptor (Homo sapiens) (P46663 whole entry): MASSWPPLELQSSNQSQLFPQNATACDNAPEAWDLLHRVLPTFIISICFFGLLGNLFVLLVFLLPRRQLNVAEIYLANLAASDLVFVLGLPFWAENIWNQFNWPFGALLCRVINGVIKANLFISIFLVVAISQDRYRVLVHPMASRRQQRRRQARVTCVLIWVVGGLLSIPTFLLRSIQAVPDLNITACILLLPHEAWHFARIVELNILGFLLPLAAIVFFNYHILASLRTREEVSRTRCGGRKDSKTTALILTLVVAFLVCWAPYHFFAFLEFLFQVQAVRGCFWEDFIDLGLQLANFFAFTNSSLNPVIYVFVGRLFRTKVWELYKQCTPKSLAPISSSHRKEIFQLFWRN

[11] = target: Protein phosphatase 3 catalytic subunit alpha (Homo sapiens) (UniProt Q08209); test: Inhibition of Protein Serine/threonine Phosphatase, PPP3CA (Calcineurin, PP2B) at […] µM in the Eurofins-Panlabs enzyme assay (Eurofins_assay_188020); set-up: substrate with concentration; settings: Compound concentration 11.0 uM
[12] = target: T3, Alpha-1A adrenergic receptor (Homo sapiens) (UniProt P35348); settings: Rattus norvegicus; Compound concentration 10.0 uM
T3 sequence (whole entry): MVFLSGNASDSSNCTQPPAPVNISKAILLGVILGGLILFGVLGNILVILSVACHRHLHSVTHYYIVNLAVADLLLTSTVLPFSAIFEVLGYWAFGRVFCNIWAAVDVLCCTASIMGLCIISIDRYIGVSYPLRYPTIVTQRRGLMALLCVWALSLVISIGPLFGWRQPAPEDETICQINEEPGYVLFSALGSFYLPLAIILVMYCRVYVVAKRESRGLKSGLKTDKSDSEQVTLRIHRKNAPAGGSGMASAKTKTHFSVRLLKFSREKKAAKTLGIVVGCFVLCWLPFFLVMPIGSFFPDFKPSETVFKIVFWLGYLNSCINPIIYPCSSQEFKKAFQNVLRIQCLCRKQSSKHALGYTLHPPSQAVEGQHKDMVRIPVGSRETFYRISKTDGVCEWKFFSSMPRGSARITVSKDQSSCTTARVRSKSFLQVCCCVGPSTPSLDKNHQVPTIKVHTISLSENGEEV

[13] = target: Interstitial collagenase (Homo sapiens) (UniProt P03956); test: Inhibition of Peptidase, Matrix Metalloproteinase-1 (MMP-1) at 10 µM in the Eurofins-Panlabs enzyme assay (Eurofins_assay_114110); settings: Compound concentration 10.0 uM
Sequence of Interstitial collagenase (Homo sapiens) (P03956 whole entry): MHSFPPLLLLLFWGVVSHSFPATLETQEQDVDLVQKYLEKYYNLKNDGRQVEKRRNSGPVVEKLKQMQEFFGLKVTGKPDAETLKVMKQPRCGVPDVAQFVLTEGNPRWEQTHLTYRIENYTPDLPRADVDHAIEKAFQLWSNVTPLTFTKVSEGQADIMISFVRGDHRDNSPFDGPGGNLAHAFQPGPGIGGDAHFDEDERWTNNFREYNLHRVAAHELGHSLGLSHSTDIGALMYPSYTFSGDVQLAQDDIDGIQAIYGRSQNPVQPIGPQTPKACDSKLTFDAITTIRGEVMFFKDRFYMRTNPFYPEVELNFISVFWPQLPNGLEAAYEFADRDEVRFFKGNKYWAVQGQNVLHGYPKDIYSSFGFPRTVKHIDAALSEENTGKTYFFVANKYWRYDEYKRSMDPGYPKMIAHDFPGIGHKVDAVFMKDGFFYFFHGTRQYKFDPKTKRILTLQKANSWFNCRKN

[14] = target: Receptor-type tyrosine-protein phosphatase C (Homo sapiens) (UniProt P08575); test: Inhibition of Protein Tyrosine Phosphatase, PTPRC (CD45) at 10 µM in the Eurofins-Panlabs enzyme assay (Eurofins_assay_190010); settings: Compound concentration 10.0 uM
[15] = target: Neutrophil elastase (Homo sapiens) (UniProt P08246); test: Inhibition of Peptidase, ELA2 (Neutrophil Elastase 2) at 10 µM in the Eurofins-Panlabs enzyme assay (Eurofins_assay_166010); settings: Compound concentration 10.0 uM
Sequence of Neutrophil elastase (Homo sapiens) (P08246 whole entry): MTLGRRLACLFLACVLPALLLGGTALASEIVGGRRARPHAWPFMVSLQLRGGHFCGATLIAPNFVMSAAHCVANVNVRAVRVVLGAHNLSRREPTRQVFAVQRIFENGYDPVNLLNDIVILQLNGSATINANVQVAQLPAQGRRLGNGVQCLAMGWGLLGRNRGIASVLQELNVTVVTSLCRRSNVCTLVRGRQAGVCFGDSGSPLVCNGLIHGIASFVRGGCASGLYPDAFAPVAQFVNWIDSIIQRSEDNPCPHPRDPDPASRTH

[16] = target: Sigma non-opioid intracellular receptor 1 (Homo sapiens) (UniProt Q99720); test: Inhibition of Sigma 1 at 10 µM in the Eurofins-Panlabs radioligand binding assay (Eurofins_assay_278110); set-up: ligand concentration 8 nM; settings: Compound concentration 10.0 uM
Sequence of Sigma non-opioid intracellular receptor 1 (Homo sapiens) (Q99720 whole entry): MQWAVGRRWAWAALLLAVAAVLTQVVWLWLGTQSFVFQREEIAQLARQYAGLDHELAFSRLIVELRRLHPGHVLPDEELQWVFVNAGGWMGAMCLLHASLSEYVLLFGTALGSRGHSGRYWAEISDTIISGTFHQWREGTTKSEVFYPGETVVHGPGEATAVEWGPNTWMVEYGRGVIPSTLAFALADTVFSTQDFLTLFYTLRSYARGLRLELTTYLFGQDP

[17] = target: Substance-P receptor (Homo sapiens) (UniProt P25103); test: Inhibition of Tachykinin NK1 at 10 µM in the Eurofins-Panlabs radioligand binding assay (Eurofins_assay_255520); set-up: ligand concentration 0.8 nM; settings: Compound concentration 10.0 uM
Sequence of Substance-P receptor (Homo sapiens) (P25103 whole entry): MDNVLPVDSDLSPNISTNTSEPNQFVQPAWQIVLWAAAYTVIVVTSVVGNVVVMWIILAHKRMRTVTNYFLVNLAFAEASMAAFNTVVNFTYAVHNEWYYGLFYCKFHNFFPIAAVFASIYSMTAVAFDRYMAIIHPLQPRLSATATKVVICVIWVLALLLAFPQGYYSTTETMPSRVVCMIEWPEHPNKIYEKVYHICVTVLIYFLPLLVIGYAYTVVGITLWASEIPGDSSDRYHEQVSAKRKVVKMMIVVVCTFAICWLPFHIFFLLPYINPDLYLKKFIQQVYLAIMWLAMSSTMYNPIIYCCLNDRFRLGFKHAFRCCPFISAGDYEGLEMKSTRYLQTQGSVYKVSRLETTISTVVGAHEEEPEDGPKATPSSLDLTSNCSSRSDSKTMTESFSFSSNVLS

[18] = target: MAO-A (Homo sapiens, UniProt P21397); test: Inhibition of Monoamine Oxidase MAO-A at compound concentration of 10.0 uM in the Eurofins-Panlabs enzyme assay (Eurofins_assay_140010); set-up: substrate with concentration 50 uM Kynuramine, incubation time 60 min, incubation temperature 37 C; settings: human recombinant MAO-A expressed in insect Hi5 cells, probe Kynuramine, compound concentration 10 uM
Sequence of MAO-A (P21397 whole entry): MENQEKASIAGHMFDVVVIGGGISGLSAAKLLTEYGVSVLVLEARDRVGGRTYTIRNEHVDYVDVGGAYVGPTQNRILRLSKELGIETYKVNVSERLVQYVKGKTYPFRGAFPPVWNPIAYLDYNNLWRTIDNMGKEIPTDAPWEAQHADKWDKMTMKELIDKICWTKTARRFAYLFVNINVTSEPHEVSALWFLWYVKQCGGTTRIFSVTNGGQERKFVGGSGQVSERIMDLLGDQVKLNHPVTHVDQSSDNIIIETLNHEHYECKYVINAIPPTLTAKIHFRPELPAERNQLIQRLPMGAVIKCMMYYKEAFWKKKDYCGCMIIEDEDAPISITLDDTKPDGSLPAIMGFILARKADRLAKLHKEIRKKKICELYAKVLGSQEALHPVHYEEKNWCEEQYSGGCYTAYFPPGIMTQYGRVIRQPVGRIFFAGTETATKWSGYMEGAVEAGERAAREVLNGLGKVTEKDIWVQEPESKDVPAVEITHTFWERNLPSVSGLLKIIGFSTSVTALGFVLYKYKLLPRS

inhibition [1] [%] | inhibition [2] [%] | inhibition [3] [%] | inhibition [4] [%] | inhibition [5] [%] | inhibition [6] [%] | Structure (SMILES) | inhibition [7] [%] | inhibition [8] [%] | inhibition [9] [%] | inhibition [10] [%] | inhibition [11] [%] | inhibition [12] [%] | inhibition [13] [%] | inhibition [14] [%] | inhibition [15] [%] | inhibition [16] [%] | inhibition [17] [%] | inhibition at 60 min, 10 µM [18]
-0.44 | -0.03 | -9.78 | 25 | 8 | -9.85 | O=c1n(Cc2cncn2-c2cccc(Cl)c2)nc(-c2ccc(Cl)cc2)n1C[C@H](O)C(F)(F)F |  |  |  |  |  |  |  |  |  |  |  | 
 |  |  |  |  |  | C[C@H](O)c1nc(Cn2nc(-c3ccc(Cl)cc3)n(C[C@H](O)C(F)(F)F)c2=O)nn1-c1cccc(Cl)c1 [PECAVAPTAN] | 1 | -9.22 | -7 | 0 | 32 | 23 | 3 | 0 | 1 | 15 | 20 | -3% (not active)
